Read-outs that look alike come from different tables or passages of the source.
What was measured:
[1] = system: Key Grass and Sedge Weeds as well as Grass Crops; assay: Post-emergent Test II herbicidal activity (Table 16); type: in vivo; conditions: post-emergence, 336 h, 14 days after application; for pest or weed control at 35 g/ha: 35 g ai/ha; for pest or weed control at 70 g/ha: 70 g ai/ha; for pest or weed control at 140 g/ha: 140 g ai/ha
In short: (§1)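 Visual injury rating (0 = none, 100% = complete kill) made 14 d after treatment, relative to untreated plants. Compounds in an acetone/DMSO/aqueous crop-oil/surfactant spray, at top rate and serial 1/2×-1/16× rates, were applied at 187 L/ha overhead to first-second true leaf plants raised 7-21 d in greenhouse.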

[2] = system: Key Broadleaf Weed and Crop Species; assay: Post-emergent Test II herbicidal activity (Table 15); type: in vivo; conditions: post-emergence, 336 h, 14 d; for pest or weed control at 35 g/ha: 35 g ai/ha; for pest or weed control at 70 g/ha: 70 g ai/ha; for pest or weed control at 140 g/ha: 140 g ai/ha
In short: as §1

[3] = Cyperus esculentus, yellow nutsedge (Cyperus esculentus), read-out: Visual Growth Reduction (%) 14 Days After Application CYPES
[4] = Echinochloa crus-galli, barnyardgrass (Echinochloa crus-galli), read-out: Visual Growth Reduction (%) 14 Days After Application ECHCG
[5] = Oryza sativa, rice (Oryza sativa), read-out: Visual Growth Reduction (%) 14 Days After Application ORYSA
[6] = Setaria faberi, giant foxtail (Setaria faberi), read-out: Visual Growth Reduction (%) 14 Days After Application SETFA
[7] = Triticum aestivum, wheat, spring (Triticum aestivum), read-out: Visual Growth Reduction (%) 14 Days After Application TRZAS
[8] = Zea mays, maize, corn (Zea mays), read-out: Visual Growth Reduction (%) 14 Days After Application ZEAMX
[9] = Abutilon theophrasti, velvetleaf (Abutilon theophrasti), read-out: Visual Growth Reduction (%) 14 Days After Application, ABUTH
[10] = Amaranthus retroflexus, redroot pigweed (Amaranthus retroflexus), read-out: Visual Growth Reduction (%) 14 Days After Application, AMARE
[11] = Brassica napus, oilseed rape, canola (Brassica napus), read-out: Visual Growth Reduction (%) 14 Days After Application, BRSNN
[12] = Chenopodium album, lambsquarters (Chenopodium album), read-out: Visual Growth Reduction (%) 14 Days After Application, CHEAL
[13] = Euphorbia heterophylla, wild poinsettia (Euphorbia heterophylla), read-out: Visual Growth Reduction (%) 14 Days After Application, EPHHL
[14] = Helianthus annuus, sunflower (Helianthus annuus), read-out: Visual Growth Reduction (%) 14 Days After Application, HELAN

Nc1cc(-c2ccc3ccsc3c2)nc(C(=O)O)c1Cl [Compound 3.16]
melting point: 176 to 177 °C
pest or weed control at 35 g/ha [1, 3]: 0 to 29%
pest or weed control at 70 g/ha [1, 3]: 0 to 29%
pest or weed control at 140 g/ha [1, 3]: 45 to 59%
pest or weed control at 35 g/ha [1, 4]: 75 to 84%
pest or weed control at 70 g/ha [1, 4]: 75 to 84%
pest or weed control at 140 g/ha [1, 4]: 75 to 84%
pest or weed control at 35 g/ha [1, 5]: 0 to 29%
pest or weed control at 70 g/ha [1, 5]: 0 to 29%
pest or weed control at 140 g/ha [1, 5]: 0 to 29%
pest or weed control at 35 g/ha [1, 6]: 0 to 29%
pest or weed control at 70 g/ha [1, 6]: 0 to 29%
pest or weed control at 140 g/ha [1, 6]: 0 to 29%
pest or weed control at 35 g/ha [1, 7]: 0 to 29%
pest or weed control at 70 g/ha [1, 7]: 0 to 29%
pest or weed control at 140 g/ha [1, 7]: 0 to 29%
pest or weed control at 35 g/ha [1, 8]: 60 to 74%
pest or weed control at 70 g/ha [1, 8]: 60 to 74%
pest or weed control at 140 g/ha [1, 8]: 75 to 84%
pest or weed control at 35 g/ha [2, 9]: 60 to 74%
pest or weed control at 70 g/ha [2, 9]: 60 to 74%
pest or weed control at 140 g/ha [2, 9]: 75 to 84%
pest or weed control at 35 g/ha [2, 10]: 85 to 94%
pest or weed control at 70 g/ha [2, 10]: 95 to 100%
pest or weed control at 140 g/ha [2, 10]: 85 to 94%
pest or weed control at 35 g/ha [2, 11]: 0 to 29%
pest or weed control at 70 g/ha [2, 11]: 0 to 29%
pest or weed control at 140 g/ha [2, 11]: 45 to 59%
pest or weed control at 35 g/ha [2, 12]: 85 to 94%
pest or weed control at 70 g/ha [2, 12]: 85 to 94%
pest or weed control at 140 g/ha [2, 12]: 85 to 94%
pest or weed control at 35 g/ha [2, 13]: 60 to 74%
pest or weed control at 70 g/ha [2, 13]: 60 to 74%
pest or weed control at 140 g/ha [2, 13]: 60 to 74%
pest or weed control at 35 g/ha [2, 14]: 0 to 29%
pest or weed control at 70 g/ha [2, 14]: 0 to 29%
pest or weed control at 140 g/ha [2, 14]: 0 to 29%

Source: patent US20170050957A1, “4-AMINO-6-(HETEROCYCLIC)PICOLINATES AND 6-AMINO-2-(HETEROCYCLIC)PYRIMIDINE-4-CARBOXYLATES AND THEIR USE AS HERBICIDES” (Dow AgroSciences LLC, priority 2013, published 2017)
